{"source": "patent US20060069132A1", "about": "“Azolecarboxamide herbicides” (priority 2004, published 2006)", "key": {"lambsquarters": {"system": "lambsquarters", "assay": "Test B pre-/postemergence herbicide test", "assay_type": "in vivo, Chenopodium album", "conditions": "for Lambsquarters plant response rating: postemergence, scale 0 (no effect) to 100 (complete control)", "in_short": "(§1)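 Response was scored visually 13 to 15 days after treatment against untreated greenhouse controls, 0 meaning no effect and 100 complete control. Formulations (solvent mixture plus surfactant) went onto soil after planting, onto foliage of 1- to 4-leaf plants, and onto 2-leaf plants in a flooded paddy set including rice and barnyardgrass.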"}, "blackgrass": {"system": "blackgrass", "assay": "Test B postemergence herbicide test", "assay_type": "in vivo, Alopecurus myosuroides", "conditions": "postemergence, visual rating, scale 0 (no effect) to 100 (complete control)", "in_short": "(§2)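 Treated at 2-leaf (paddy) or 1–4-leaf, 2–18 cm (postemergence); greenhouse 13–15 d; visual score vs control, 0 none to 100 complete control; dash = not tested.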"}, "barnyardgrass [1]": {"system": "barnyardgrass", "assay": "Test B pre-/postemergence herbicide test", "assay_type": "in vivo, Echinochloa crus-galli", "conditions": "for Barnyardgrass plant response rating: postemergence, scale 0 (no effect) to 100 (complete control)", "in_short": "(§3)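 Herbicidal effect was judged by eye on a 0–100 scale after plants stood 13 to 15 days in the greenhouse following pre- or postemergence treatment with surfactant-containing formulations.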"}, "morningglory": {"system": "morningglory", "assay": "Test B pre-/postemergence herbicide test", "assay_type": "in vivo, Ipomoea coccinea", "conditions": "for Morningglory plant response rating: postemergence, scale 0 (no effect) to 100 (complete control)", "in_short": "as §3"}, "wild oat": {"system": "wild oat", "assay": "Test B postemergence herbicide test", "assay_type": "in vivo, Avena fatua", "conditions": "postemergence, visual rating, scale 0 (no effect) to 100 (complete control)", "in_short": "(§4)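 Formulated test chemicals went onto postemergence plants measuring 2 to 18 cm, at one to four leaves. For the paddy assay, species had reached two leaves. Scoring took place 13–15 days later by eye, relative to untreated plants, using 0 for no effect up to 100 for full control.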"}, "barnyardgrass [2]": {"system": "barnyardgrass", "assay": "Test B flooded paddy test", "assay_type": "in vivo, Echinochloa crus-galli", "conditions": "1000 g ai/ha, visual rating, scale 0 to 100 (0 no effect, 100 complete control), 13 to 15 days", "in_short": "as §2"}, "wheat": {"system": "wheat", "assay": "Test B postemergence herbicide test", "assay_type": "in vivo, Triticum aestivum", "parameters": "key to Wheat plant response rating: 0 = no effect, 100 = complete control", "conditions": "postemergence, visual rating, scale 0 (no effect) to 100 (complete control)", "in_short": "as §4"}, "pigweed": {"system": "pigweed", "assay": "Test B pre-/postemergence herbicide test", "assay_type": "in vivo, Amaranthus retroflexus", "conditions": "for Pigweed plant response rating: postemergence, scale 0 (no effect) to 100 (complete control)", "in_short": "as §1"}, "Surinam grass": {"system": "Surinam grass", "assay": "Test B pre-/postemergence herbicide test", "assay_type": "in vivo, Urochloa decumbens", "conditions": "for Surinam Grass plant response rating: postemergence, scale 0 (no effect) to 100 (complete control)", "in_short": "as §1"}, "ducksalad": {"system": "ducksalad", "assay": "Test B flooded paddy test", "assay_type": "in vivo, Heteranthera limosa", "conditions": "1000 g ai/ha, visual rating, scale 0 to 100 (0 no effect, 100 complete control), 13 to 15 days", "in_short": "as §2"}, "rice": {"system": "rice", "assay": "Test B flooded paddy test", "assay_type": "in vivo, Oryza sativa", "conditions": "1000 g ai/ha, visual rating, scale 0 to 100 (0 no effect, 100 complete control), 13 to 15 days", "in_short": "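Postemergence plants were sprayed with formulated test chemicals at 2 to 18 cm height (1- to 4-leaf stage); paddy species were grown to the 2-leaf stage. After 13 to 15 days in a greenhouse, injury was rated visually against untreated controls on a 0–100 scale (0 = no effect, 100 = complete control).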"}, "corn": {"system": "corn", "assay": "Test B pre-/postemergence herbicide test", "assay_type": "in vivo, Zea mays", "conditions": "for Corn plant response rating: postemergence, scale 0 (no effect) to 100 (complete control)", "in_short": "as §1"}, "cocklebur": {"system": "cocklebur", "assay": "Test B pre-/postemergence herbicide test", "assay_type": "in vivo, Xanthium strumarium", "conditions": "for Cocklebur plant response rating: postemergence, scale 0 (no effect) to 100 (complete control)", "in_short": "as §3"}, "[3]": {"system": "small flower umbrella sedge", "assay": "Test B flooded paddy test", "assay_type": "in vivo, Cyperus difformis", "conditions": "1000 g ai/ha, visual rating, scale 0 to 100 (0 no effect, 100 complete control), 13 to 15 days", "in_short": "as §2"}, "large crabgrass": {"system": "large crabgrass", "assay": "Test B pre-/postemergence herbicide test", "assay_type": "in vivo, Digitaria sanguinalis", "conditions": "for Crabgrass, Large plant response rating: postemergence, scale 0 (no effect) to 100 (complete control)", "in_short": "as §1"}, "giant foxtail": {"system": "giant foxtail", "assay": "Test B pre-/postemergence herbicide test", "assay_type": "in vivo, Setaria faberi", "conditions": "for Foxtail, Giant plant response rating: postemergence, scale 0 (no effect) to 100 (complete control)", "in_short": "as §1"}, "[4]": {"conditions": "125 g ai/ha, 0 = no effect, 100 = complete control, preemergence"}, "[5]": {"conditions": "500 g ai/ha, visual rating, 0 = no effect, 100 = complete control, preemergence"}}}
{"smiles": "CCc1nn(C(C)(C)C)cc1C(=O)Nc1cc(C(=O)N(CC)CC)ccc1F", "note": "[Compound 223]", "values": [{"measurement": "Lambsquarters plant response rating (0 to 100 scale)", "setting": "lambsquarters; [4]", "value": 80}, {"measurement": "Plant response rating, Lambsquarters", "setting": "lambsquarters; [5]", "value": 100}, {"measurement": "Lambsquarters plant response rating", "setting": "lambsquarters; 125 g ai/ha, visual rating", "value": 60}, {"measurement": "Lambsquarters plant response rating", "setting": "lambsquarters; 500 g ai/ha, visual rating", "value": 80}, {"measurement": "Blackgrass plant response rating", "setting": "blackgrass; 125 g ai/ha", "value": 0}, {"measurement": "Blackgrass plant response rating", "setting": "blackgrass; 500 g ai/ha", "value": 0}, {"measurement": "Barnyardgrass plant response rating (0 to 100 scale)", "setting": "barnyardgrass [1]; [4]", "value": 20}, {"measurement": "Plant response rating, Barnyardgrass", "setting": "barnyardgrass [1]; [5]", "value": 80}, {"measurement": "Barnyardgrass plant response rating", "setting": "barnyardgrass [1]; 125 g ai/ha, visual rating", "value": 10}, {"measurement": "Barnyardgrass plant response rating", "setting": "barnyardgrass [1]; 500 g ai/ha, visual rating", "value": 20}, {"measurement": "Morningglory plant response rating (0 to 100 scale)", "setting": "morningglory; [4]", "value": 10}, {"measurement": "Plant response rating, Morningglory", "setting": "morningglory; [5]", "value": 30}, {"measurement": "Morningglory plant response rating", "setting": "morningglory; 125 g ai/ha, visual rating", "value": 40}, {"measurement": "Morningglory plant response rating", "setting": "morningglory; 500 g ai/ha, visual rating", "value": 80}, {"measurement": "Oat, Wild plant response rating", "setting": "wild oat; 125 g ai/ha", "value": 0}, {"measurement": "Oat, Wild plant response rating", "setting": "wild oat; 500 g ai/ha", "value": 30}, {"measurement": "Barnyardgrass plant response rating", "setting": "barnyardgrass [2]", "value": 40}, {"measurement": "Wheat plant response rating", "setting": "wheat; 125 g ai/ha", "value": 0}, {"measurement": "Wheat plant response rating", "setting": "wheat; 500 g ai/ha", "value": 0}, {"measurement": "Pigweed plant response rating (0 to 100 scale)", "setting": "pigweed; [4]", "value": 90}, {"measurement": "Plant response rating, Pigweed", "setting": "pigweed; [5]", "value": 100}, {"measurement": "Pigweed plant response rating", "setting": "pigweed; 125 g ai/ha, visual rating", "value": 60}, {"measurement": "Pigweed plant response rating", "setting": "pigweed; 500 g ai/ha, visual rating", "value": 70}, {"measurement": "Surinam Grass plant response rating (0 to 100 scale)", "setting": "Surinam grass; [4]", "value": 20}, {"measurement": "Plant response rating, Surinam Grass", "setting": "Surinam grass; [5]", "value": 90}, {"measurement": "Surinam Grass plant response rating", "setting": "Surinam grass; 125 g ai/ha, visual rating", "value": 10}, {"measurement": "Surinam Grass plant response rating", "setting": "Surinam grass; 500 g ai/ha, visual rating", "value": 10}, {"measurement": "Ducksalad plant response rating", "setting": "ducksalad", "value": 90}, {"measurement": "Rice plant response rating", "setting": "rice", "value": 70}, {"measurement": "Corn plant response rating (0 to 100 scale)", "setting": "corn; [4]", "value": 10}, {"measurement": "Plant response rating, Corn", "setting": "corn; [5]", "value": 80}, {"measurement": "Corn plant response rating", "setting": "corn; 125 g ai/ha, visual rating", "value": 10}, {"measurement": "Corn plant response rating", "setting": "corn; 500 g ai/ha, visual rating", "value": 20}, {"measurement": "Cocklebur plant response rating (0 to 100 scale)", "setting": "cocklebur; [4]", "value": 0}, {"measurement": "Plant response rating, Cocklebur", "setting": "cocklebur; [5]", "value": 20}, {"measurement": "Cocklebur plant response rating", "setting": "cocklebur; 125 g ai/ha, visual rating", "value": 10}, {"measurement": "Cocklebur plant response rating", "setting": "cocklebur; 500 g ai/ha, visual rating", "value": 30}, {"measurement": "Sedge, Umbrella plant response rating", "setting": "[3]", "value": 80}, {"measurement": "Crabgrass, Large plant response rating (0 to 100 scale)", "setting": "large crabgrass; [4]", "value": 50}, {"measurement": "Plant response rating, Crabgrass, Large", "setting": "large crabgrass; [5]", "value": 100}, {"measurement": "Crabgrass, Large plant response rating", "setting": "large crabgrass; 125 g ai/ha, visual rating", "value": 10}, {"measurement": "Crabgrass, Large plant response rating", "setting": "large crabgrass; 500 g ai/ha, visual rating", "value": 20}, {"measurement": "Foxtail, Giant plant response rating (0 to 100 scale)", "setting": "giant foxtail; [4]", "value": 10}, {"measurement": "Plant response rating, Foxtail, Giant", "setting": "giant foxtail; [5]", "value": 80}, {"measurement": "Foxtail, Giant plant response rating", "setting": "giant foxtail; 125 g ai/ha, visual rating", "value": 10}, {"measurement": "Foxtail, Giant plant response rating", "setting": "giant foxtail; 500 g ai/ha, visual rating", "value": 20}]}
